Experimental data as given in patent EP0889886B1, “NOVEL PHENANTHRIDINES SUBSTITUTED IN THE 6 POSITION” (ALTANA Pharma AG, priority 1996, dated 1997).
Counter-ions that a name gives are not always drawn.

System: PDE IV
Test: Inhibition of PDE IV activity (method of Bauer and Schwabe, adapted to microtiter plates)
Format: biochemical
Conditions: Hemmung der PDE IV-Aktivität
Experimental: Hierbei erfolgt im ersten Schritt die PDE-Reaktion. In einem zweiten Schritt wird das entstandene 5'-Nukleotid durch eine 5'-Nukleotidase des Schlangengiftes von Crotalus Atrox zum ungeladenen Nukleosid gespalten. Im dritten Schritt wird das Nukleosid auf lonenaustauschsäulen vom verbliebenen geladenen Substrat getrennt. Die Säulen werden mit 2 ml 30 mM Ammoniumformiat (pH 6,0) direkt in Minivials eluiert, in die noch 2 ml Szintillatorflüssigkeit zur Zählung gegeben wird.

Going from `CCOc1cc2c(cc1OC)C(c1ccc(NS(=O)(=O)c3ccc(C)cc3)cc1)=N[C@@H]1CCCC[C@H]21` (racemic) [Verbindung 20, (+/-)-cis-9-Ethoxy-8-methoxy-6-(4-p-toluolsulfonamidophenyl)-1,2,3,4,4a,10b-hexahydrophenanthridin] to `CCOc1cc2c(cc1OC)C(c1ccc(NS(=O)(=O)c3ccc(C(=O)OC)cc3)cc1)=N[C@@H]1CCCC[C@H]21` (racemic) [Verbindung 23, (+/-)-cis-9-Ethoxy-8-methoxy-6-[4-(4-methoxycarbonylphenyl)sulfonamidophenyl]-1,2,3,4,4a,10b-hexahvdrophenanthridin Hydrochlorid], the “-log IC50” value falls from 9.05 to 8.70.

Compared with `CCOc1cc2c(cc1OCC)[C@H]1CCCC[C@H]1N=C2c1ccc(N(C(C)=O)S(=O)(=O)c2ccc(C)cc2)cc1` (racemic) [Verbindung 35, (+/-)-cis-8,9-Diethoxy-6-[(N-acetyl-4-p-toluolsulfonamido]phenyl]-1,2,3,4,4a,10b-hexahydrophenanthridin], `CCOc1cc2c(cc1OC)C(c1ccc(N(C)S(=O)(=O)c3ccc(C)cc3)cc1)=N[C@@H]1CCCC[C@H]21` (racemic) [Verbindung 36, (+/-)-cis-9-Ethoxy-8-methoxy-6-[(N-methyl-4-p-toluolsulfonamido)phenyl]-1,2,3,4,4a,10bhexahydrophenanthridin] is higher in “-log IC50” value: 7.81 for the first, 9.09 for the second.

`CCOc1cc2c(cc1OCC)[C@@H]1CCCC[C@@H]1N=C2c1ccc(C#N)cc1` (racemic) [Verbindung 18, (+/-)-cis-8,9-Diethoxy-6-(4-cyanophenyl)-1,2,3,4,4a,10b-hexahydrophenanthridin] and `CCOc1cc2c(cc1OCC)[C@H]1CCCC[C@H]1N=C2c1ccc(Cl)nc1` (racemic) [Verbindung 26, (+/-)-cis-8,9-Diethoxy-6-(2-chiorpyrid-5-yl)-1,2,3,4,4a,10b-hexahydrophenanthridin] are within 0.2 log units of each other in “-log IC50” value: 8.24 for the first, 8.41 for the second.

Going from `COc1cc2c(cc1OC)[C@@H]1CCCC[C@@H]1N=C2c1ccc(N(S(=O)(=O)c2ccc([N+](=O)[O-])cc2)S(=O)(=O)c2ccc([N+](=O)[O-])cc2)cc1` (racemic) [Verbindung 30, (+/-)-cis-8,9-Dimethoxy-6-[4-bis(p-nitrophenylsulfonyl)aminophenyl]-1,2,3,4,4a,10b-hexahydrophenanthridin] to `COc1cc2c(cc1OC)C1CC=CCC1N=C2c1ccc(NS(=O)(=O)c2ccc(C)cc2)cc1` (racemic) [Verbindung 10, (+/-)-trans-8,9-Dimethoxy-6-(4-p-toluolsulfonamidophenyl)-1,4,4a,10b-tetrahydrophenanthridin-hydrochlorid], the “-log IC50” value falls from 7.36 to 6.10.

First: COc1cc2c(cc1OC)[C@H]1CC(C)=C(C)C[C@H]1N=C2c1ccc(NS(=O)(=O)c2ccc(C)cc2)cc1 (racemic) [Verbindung 8, (+/-)-cis-8,9-Dimethoxy-2,3-dimethyl-6-(4-p-toluolsulfonamidophenyl)-1,4,4a,10b-tetrahydrophenanthridin]
Second: COc1ccc(C2=N[C@H]3CCCC[C@H]3c3cc(OC)c(OC)cc32)cc1OC (racemic) [Verbindung 7, (+/-)-cis-8,9-Dimethoxy-6-(3,4-dimethoxyphenyl)-1,2,3,4,4a,10b-hexahydrophenanthridin]
The “-log IC50” value of the first is higher: 6.91 for the first, 6.44 for the second.

Compared with `CCOc1cc2c(cc1OCC)[C@@H]1CCCC[C@@H]1N=C2c1ccc(O)nc1` (racemic) [Verbindung 27, (+/-)-cis-8,9-Diethoxy-6-(2-hydroxypyrid-5-yl)-1,2,3,4,4a,10b-hexahydrophenanthridin], `CCOc1cc2c(cc1OCC)[C@@H]1CCCC[C@@H]1N=C2c1cccnc1.Cl` (racemic) [Verbindung 25, (+/-)-cis-8,9-Diethoxy-6-(pyrid-3-yl)-1,2,3,4,4a,10b-hexahydrophenanthridin-hydrochlorid] is higher in “-log IC50” value: 6.66 for the first, 7.96 for the second.
